The target of the experiment is T1, Prostaglandin G/H synthase 2 (Mus musculus, UniProt Q05769).
T1 sequence (Q05769 whole entry): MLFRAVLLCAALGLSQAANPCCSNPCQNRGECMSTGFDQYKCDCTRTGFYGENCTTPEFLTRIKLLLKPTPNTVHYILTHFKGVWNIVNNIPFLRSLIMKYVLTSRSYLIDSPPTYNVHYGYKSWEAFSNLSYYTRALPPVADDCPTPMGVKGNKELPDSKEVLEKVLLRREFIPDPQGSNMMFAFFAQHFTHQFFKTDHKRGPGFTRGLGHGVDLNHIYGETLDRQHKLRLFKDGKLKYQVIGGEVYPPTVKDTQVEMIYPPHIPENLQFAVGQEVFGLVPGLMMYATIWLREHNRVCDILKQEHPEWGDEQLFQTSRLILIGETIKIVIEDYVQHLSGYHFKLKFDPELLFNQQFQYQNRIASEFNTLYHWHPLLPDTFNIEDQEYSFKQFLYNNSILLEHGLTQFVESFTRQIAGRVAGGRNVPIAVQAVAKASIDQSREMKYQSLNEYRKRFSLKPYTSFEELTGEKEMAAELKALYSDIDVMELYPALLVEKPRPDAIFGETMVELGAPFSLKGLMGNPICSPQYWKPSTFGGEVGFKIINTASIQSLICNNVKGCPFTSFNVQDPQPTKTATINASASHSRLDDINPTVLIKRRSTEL
The experiment can be described thus: Inhibition of COX2 in Mus musculus (mouse) peritoneal macrophage.
As to `Cc1ccc2[nH]c(-c3ccc(S(N)(=O)=O)cc3)c(-c3ccccc3)c2c1`, the midpoint of inhibition, the IC50, lay at 0.02 nM.

For `Cc1ccc2[nH]c(-c3ccc(S(C)(=O)=O)cc3)c(-c3ccccc3)c2c1`, inhibition was half-maximal at 0.282 nM (IC50).

As to `NS(=O)(=O)c1ccc(-c2[nH]c3ccc(Cl)cc3c2-c2ccccc2)cc1`, it took 0.141 nM to reach half-maximal inhibition (IC50). This IC50 lies about 2-fold lower than the previous one.

Turning to `NS(=O)(=O)c1ccc(-c2[nH]c3ccccc3c2-c2ccc(Cl)cc2)cc1`, the concentration for half-maximal inhibition (IC50) (commonly the concentration needed to halve the response being measured) was 33.1 nM.

With `CS(=O)(=O)c1ccc(-c2[nH]c3ccccc3c2-c2ccccc2)cc1`, the IC50 is 0.603 nM.

For the molecule `CC(=O)NS(=O)(=O)c1ccc(-c2[nH]c3ccccc3c2-c2ccccc2)cc1`, 0.178 nM corresponded to half-maximal inhibition (IC50). Compared with the last molecule, the IC50 is about 3.4-fold lower.

`NS(=O)(=O)c1ccc(-c2[nH]c3ccccc3c2-c2ccccc2)cc1` had an IC50 of 0.0891 nM.

In the case of `COc1ccc(-c2c(-c3ccc(S(C)(=O)=O)cc3)[nH]c3ccccc23)cc1`, the IC50 is 0.02 nM. Against the preceding molecule, the IC50 is about 4.5-fold lower.

Take `Cc1ccc(-c2c(-c3ccc(S(C)(=O)=O)cc3)[nH]c3ccccc23)cc1C`: the IC50 was 0.17 nM.

The record behind these values is ChEMBL document CHEMBL3046011, “QSAR analysis of 2-sulfonylphenyl-3-phenyl-indole derivatives as novel anti-inflammatory compounds” (Med Chem Res, 2009).
